Biological target: T1, wt human LRRK2, catalytic site (Homo sapiens, UniProt Q5S007)
T1 construct: wt human LRRK2, catalytic site; purchased ThermoFisher/USA
Assay: TR-FRET LanthaScreen Tb Kinase Activity Assay (Example 71)
Assay type: biochemical
Details: compounds of Table 4, 38 uM ATP, method names only wt human LRRK2, read-out: IC50, Inhibitory Activity Toward LRRK2 (Wt) and LRRK2 (G2019)
Description: The compounds in Table 4 were tested for their inhibitory effect on LRRK2 kinases according to the following procedures.
The basic protocol for TR-FRET LanthaScreen Tb Kinase Activity Assay inhibitor studies were performed as follows. LanthaScreen Kinase Activity Assays (ThermoFisher/USA) to evaluate inhibitors were performed by addition of 100 nl of test compound in corresponding DMSO dilutions/5 μl of kinase/fluorescein-ERM(LRRKtide) peptide mixture, 5 μl of ATP into 384 well small volume plates. After incubation for 120 minutes at room temperature, the detection reagents containing Tb-anti-pLRRKtide antibody were added to monitor phosphrylation level of peptide. Then, after 60 min minutes incubation at room temperature plates were read in Envision. Data analysis of emission ratios was according to LanthaScreen Tb Kinase Activity Assay protocol.
Kinase and assay components were adjusted to final concentrations according to the kit protocol. For LRRK2: 2 nM wt human LRRK2, catalytic site, catalytic site (ThermoFisher/USA), 400 nM peptide, 38 uM ATP in 1× Kinase Buffer A.
Basic protocol for TR-FRET LanthaScreen Tb Kinase Activity Assay inhibitor studies involved two steps:
Enzymatic step: Addition of 100 nl of test compound in corresponding DMSO dilutions, 5 μl of kinase/substrate mixture, 5 μl of ATP into 384 well small volume plates. Incubation for 120 minutes at room temperature.
Detection step: Addition of 10 μl EDTA & antibody, read plate after 60 minutes. Data analysis of emission ratios according to KinEASE assay protocol.

T1 sequence (Q5S007 1879-2138 limits assumed): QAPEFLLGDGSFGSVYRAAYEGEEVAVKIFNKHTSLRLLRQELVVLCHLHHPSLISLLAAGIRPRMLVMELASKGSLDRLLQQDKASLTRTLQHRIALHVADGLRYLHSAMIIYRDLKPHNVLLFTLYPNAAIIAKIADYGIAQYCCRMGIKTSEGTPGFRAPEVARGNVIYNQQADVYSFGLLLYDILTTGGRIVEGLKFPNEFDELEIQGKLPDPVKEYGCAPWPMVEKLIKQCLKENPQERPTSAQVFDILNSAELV

| SMILES | IC50 |
| --- | --- |
| Fc1cccc(F)c1C1=Nc2cn[nH]c2-c2cnn3c2N1CC1(CC1)C3 [Compound 377, 9-(2,6-difluorophenyl)-6,8-dihydro-3H-spiro[2,3,5,5a,8a,10-hexaazabenzo[cd]cyclopenta[h]azulene-7,1′-cyclopropane]] | 100 to 1000 nM |
| Fc1cccc(C(F)F)c1C1=Nc2cn[nH]c2-c2cnn3c2N1CCC3 [Compound 381, 8-[2-(difluoromethyl)-6-fluoro-phenyl]-3,4,7,9,13,14-hexazatetracyclo[7.6.1.02,6.013,16]hexadeca-1(16),2(6),4,7,14-pentaene] | 10 to 100 nM |
| Fc1cccc(Cl)c1C1=Nc2cn[nH]c2-c2cnn3c2N1CC3 [Compound 383, 8-(2-chloro-6-fluoro-phenyl)-3,4,7,9,12,13-hexazatetracyclo[7.5.1.02,6.012,15]pentadec-1(15),2(6),4,7,13-pentaen] | < 10 nM |
| Fc1cc(OC(F)F)cc(F)c1C1=Nc2cn[nH]c2-c2cc(C(F)(F)F)cc3[nH]cc1c23 [Compound 384, 3-(4-(difluoromethoxy)-2,6-difluorophenyl)-9-(trifluoromethyl)-1,7-dihydropyrazolo[3′,4′:6,7]azepino[3,4,5-cd]indole] | 10 to 100 nM |
| Fc1cc(Cl)cc(F)c1C1=Nc2cn[nH]c2-c2cnn3c2N1CCC3 [Compound 385, 9-(4-chloro-2,6-difluorophenyl)-3,6,7,8-tetrahydro-2,3,5,5a,8a,10-hexaazabenzo[cd]cyclopenta[h]azulene] | 10 to 100 nM |
| Fc1cncc(F)c1C1=Nc2c(Cl)n[nH]c2-c2cnn3c2N1CCC3 [Compound 386, 1-chloro-9-(3,5-difluoropyridin-4-yl)-3,6,7,8-tetrahydro-2,3,5,5a,8a,10-hexaazabenzo[cd]cyclopenta[h]azulene] | 10 to 100 nM |
| Cc1n[nH]c2c1N=C(c1c(F)ccc(Br)c1F)N1CCn3ncc-2c31 [Compound 391, 3-(3-bromo-2,6-difluorophenyl)-5-methyl-2,7-dihydro-1H-2a,4,6,7,9,9a-hexaazadicyclopenta[cd,f]azulene] | < 10 nM |
| Fc1cccc(Br)c1C1=Nc2cn[nH]c2-c2cnn3c2N1CC3 [Compound 393, 3-(2-bromo-6-fluorophenyl)-2,7-dihydro-1H-2a,4,6,7,9,9a-hexaazadicyclopenta[cd,f]azulene] | 10 to 100 nM |
| N#Cc1ccc(F)c(C2=Nc3cn[nH]c3-c3cnn4c3N2CC4)c1F [Compound 394, 3-(2,7-dihydro-1H-2a,4,6,7,9,9a-hexaazadicyclopenta[cd,f]azulen-3-yl)-2,4-difluorobenzonitrile] | < 10 nM |
| Cc1n[nH]c2c1N=C(c1c(F)cccc1Cl)N1CCn3ncc-2c31 [Compound 395, 3-(2-chloro-6-fluorophenyl)-5-methyl-2,7-dihydro-1H-2a,4,6,7,9,9a-hexaazadicyclopenta[cd,f]azulene] | < 10 nM |
| Cc1ccc(F)c(C2=Nc3c(C)n[nH]c3-c3cnn4c3N2CCC4)c1F [Compound 396, 9-(2,6-difluoro-3-methylphenyl)-1-methyl-3,6,7,8-tetrahydro-2,3,5,5a,8a,10-hexaazabenzo[cd]cyclopenta[h]azulene] | < 10 nM |
| Cc1n[nH]c2c1N=C(c1c(F)cc(OC(F)F)cc1F)N1CCn3ncc-2c31 [Compound 398] | < 10 nM |
| Cc1n[nH]c2c1N=C(c1c(F)cccc1F)c1c[nH]c3cc(Cl)cc-2c13 [Compound 400, 9-chloro-3-(2,6-difluorophenyl)-5-methyl-1,7-dihydropyrazolo[3′,4′:6,7]azepino[3,4,5-cd]indole] | < 10 nM |
| Fc1cc(Cl)cc(F)c1C1Nc2cn[nH]c2-c2cnn3c2N1CCC3 (stereo not drawn) [Compound 402, 9-(4-chloro-2,6-difluorophenyl)-3,6,7,8,9,10-hexahydro-2,3,5,5a,8a,10-hexaazabenzo[cd]cyclopenta[h]azulene] | 100 to 1000 nM |
| Fc1cc2ncccc2c(F)c1C1=Nc2cn[nH]c2-c2cnn3c2N1CC3 [Compound 404, 3-(5,7-difluoroquinolin-6-yl)-2,7-dihydro-1H-2a,4,6,7,9,9a-hexaazadicyclopenta[cd,f]azulene] | 10 to 100 nM |

Other lines, results leading:

| IC50 | SMILES |
| --- | --- |
| 100 to 1000 nM | Cc1cccc(C)c1C1=Nc2cn[nH]c2-c2cnn3c2N1CCC3 [Compound 379, 8-(2,6-dimethylphenyl)-3,4,7,9,13,14-hexazatetracyclo[7.6.1.02,6.013,16]hexadeca-1(16),2(6),4,7,14-pentaene] |
| 10 to 100 nM | Fc1cccc(C(F)(F)F)c1C1=Nc2cn[nH]c2-c2cnn3c2N1CCC3 [Compound 380, 8-[2-fluoro-6-(trifluoromethyl)phenyl]-3,4,7,9,13,14-hexazatetracyclo[7.6.1.02,6.013,16]hexadeca-1(16),2(6),4,7,14-pentaene] |
| < 10 nM | Cc1cccc(F)c1C1=Nc2cn[nH]c2-c2cnn3c2N1CC3 [Compound 382, 8-(2-fluoro-6-methyl-phenyl)-3,4,7,9,12,13-hexazatetracyclo[7.5.1.02,6.012,15]pentadeca-1(15),2(6),4,7,13-pentaene] |
| < 10 nM | Fc1cc(F)c(C2=Nc3cn[nH]c3-c3cnn4c3N2CC4)c(F)c1 [Compound 387, 3-(2,4,6-trifluorophenyl)-2,7-dihydro-1H-2a,4,6,7,9,9a-hexaazadicyclopenta[cd,f]azulene] |
| 10 to 100 nM | Fc1cc(Cl)cc(F)c1C1=Nc2cn[nH]c2-c2cnn3c2N1CC3 [Compound 388, 3-(4-chloro-2,6-difluorophenyl)-2,7-dihydro-1H-2a,4,6,7,9,9a-hexaazadicyclopenta[cd,f]azulene] |
| < 10 nM | Fc1ccc(Br)c(F)c1C1=Nc2cn[nH]c2-c2cnn3c2N1CC3 [Compound 389, 3-(3-bromo-2,6-difluorophenyl)-2,7-dihydro-1H-2a,4,6,7,9,9a-hexaazadicyclopenta[cd,f]azulene] |
| < 10 nM | Fc1ccc(Cl)c(F)c1C1=Nc2cn[nH]c2-c2cnn3c2N1CC3 [Compound 390, 3-(3-chloro-2,6-difluorophenyl)-2,7-dihydro-1H-2a,4,6,7,9,9a-hexaazadicyclopenta[cd,f]azulene] |
| < 10 nM | Fc1ccc(Br)c(Cl)c1C1=Nc2cn[nH]c2-c2cnn3c2N1CC3 [Compound 392, 3-(3-bromo-2-chloro-6-fluorophenyl)-2,7-dihydro-1H-2a,4,6,7,9,9a-hexaazadicyclopenta[cd,f]azulene] |
| < 10 nM | Cc1n[nH]c2c1N=C(c1c(F)ccc(C#N)c1F)N1CCCn3ncc-2c31 [Compound 397, 2,4-difluoro-3-(1-methyl-3,6,7,8-tetrahydro-2,3,5,5a,8a,10-hexaazabenzo[cd]cyclopenta[h]azulen-9-yl)benzonitrile] |
| < 10 nM | Fc1ccc(C2CC2)c(F)c1C1=Nc2cn[nH]c2-c2cnn3c2N1CC3 [Compound 399, 3-(3-cyclopropyl-2,6-difluorophenyl)-2,7-dihydro-1H-2a,4,6,7,9,9a-hexaazadicyclopenta[cd,f]azulene] |
| < 10 nM | Fc1cccc(F)c1C1=Nc2cn[nH]c2-c2cc(C(F)(F)F)cc3[nH]cc1c23 [Compound 401, 3-(2,6-difluorophenyl)-9-(trifluoromethyl)-1,7-dihydropyrazolo[3′,4′:6,7]azepino[3,4,5-cd]indole] |
| < 10 nM | N#Cc1ccc(F)c(C2=Nc3cn[nH]c3-c3cc(C(F)(F)F)cc4[nH]cc2c34)c1F [Compound 405, 2,4-difluoro-3-(9-(trifluoromethyl)-1,7-dihydropyrazolo[3′,4′:6,7]azepino[3,4,5-cd]indol-3-yl)benzonitrile] |
| < 10 nM | OCc1cc(F)c(C2=Nc3cn[nH]c3-c3cc(C(F)(F)F)cc4[nH]cc2c34)c(F)c1 [Compound 406, (3,5-difluoro-4-(9-(trifluoromethyl)-1,7-dihydropyrazolo[3′,4′:6,7]azepino[3,4,5-cd]indol-3-yl)phenyl)methanol] |
| < 10 nM | OCc1ccc(F)c(C2=Nc3cn[nH]c3-c3cc(C(F)(F)F)cc4[nH]cc2c34)c1F [Compound 407, (2,4-difluoro-3-(9-(trifluoromethyl)-1,7-dihydropyrazolo[3′,4′:6,7]azepino[3,4,5-cd]indol-3-yl)phenyl)methanol] |
| 10 to 100 nM | COc1cc(F)c(C2=Nc3cn[nH]c3-c3cc(C(F)(F)F)cc4[nH]cc2c34)c(F)c1 [Compound 408] |
